According to BindingDB's records for doi:10.1002/bip.20588 (University of California Davis, 2006):
pIC50: −log10 of the molar value. *1 amine or outer side, *2 acyl side, *3 side chain or, on linkers, in order; H or OH if unused. Where a SMILES comes first, the peptide text is derived from it. [ ]: non-standard residue; d: D form. The star is where a group is joined. ξ: configuration not given here. X5 = O=C(c1ccc(-c2ccc(N[*:1])cc2)o1)[*:2]; X13 = CC(C(=O)[*:2])c1ccc(N[*:1])cc1; X14 = Cc1ccccc1NC(=O)Nc1ccc(N*)cc1; X3 = O=C(CCCc1ccc(N[*:1])cc1)[*:2]; X9 = Cc1ccccc1NC(=O)Nc1cccc(N*)c1; X1 = O=C(Cc1ccc(N[*:1])cc1)[*:2]; Aad = N[C@@H](CCCC(=O)O)C(=O)O; Ile(3ξ) = CCC(C)[C@H](N)C(=O)O; NH(2-Me-phenyl) = Cc1ccccc1N*; Tle = CC(C)(C)[C@H](N)C(=O)O; X12 = c1ccc(Oc2ccccc2N*)cc1; β3hP = O=C(O)C[C@@H]1CCCN1; β3hD = NC(CC(=O)O)CC(=O)O; 4Abz = Nc1ccc(C(=O)O)cc1; Dpg = CCCC(N)(CCC)C(=O)O; Heptanoyl = CCCCCCC(=O)*; Nle = CCCC[C@H](N)C(=O)O; Dap = NC[C@H](N)C(=O)O; CO = O=C([*:1])[*:2]

Molecular target: Integrin alpha-4/beta-1 (Homo sapiens, UniProt P05556+P13612, T112H)
Assay: Jurkat Cell Adhesion Inhibition Assay
Settings: not given
Method: Binding affinities (IC50) of the ligands were studied in a Jurkat cell adhesion assay by inhibiting the alpha-4/beta-1 mediated cell adhesion to CS-1 peptides. The 96-well plates were coated with neutravidin, followed by biotinconjugated CS-1 peptides. Jurkat cells with series dilutions of tested ligands in binding buffer were added and allowed to bind for 30 min. Bound cells were recorded using a 96-well plate reader at 570 nm. IC50 values were calculated from inhibition curves resulting from the concentration-dependent inhibition

First: CCCC(CCC)(NC(=O)Cc1ccc(NC(=O)Nc2ccccc2C)cc1)C(=O)N[C@@H](CC(=O)O)C(=O)N[C@H](C(=O)N1CCC[C@H]1C(N)=O)C(C)CC (stereo partly drawn) [(3S)-3-{[(2S,3S)-1-[(2S)-2-carbamoylpyrrolidin-1-yl]-3-methyl-1-oxopentan-2-yl]carbamoyl}-3-{2-[1-(4-{[(2-methylphenyl)carbamoyl]amino}phenyl)acetamido]-2-propylpentanamido}propanoic acid] ({NH(2-Me-phenyl)-CO}-[X1][Dpg]D[Ile(3ξ)]P-NH2)
Second: CCC(C)[C@H](NC(=O)[C@H](CC(=O)O)NC(=O)[C@@H](NC(=O)Cc1ccc(NC(=O)Nc2ccccc2C)cc1)C(C)(C)C)C(=O)N1CCC[C@H]1C(N)=O (stereo partly drawn) [(3S)-3-{[(2S,3S)-1-[(2S)-2-carbamoylpyrrolidin-1-yl]-3-methyl-1-oxopentan-2-yl]carbamoyl}-3-[(2S)-3,3-dimethyl-2-[1-(4-{[(2-methylphenyl)carbamoyl]amino}phenyl)acetamido]butanamido]propanoic acid] ({NH(2-Me-phenyl)-CO}-[X1][Tle]D[Ile(3ξ)]P-NH2)
The pIC50 of the first is 1.80 log units lower: 6.35 for the first, 8.15 for the second.

Compared with `CCCC[C@H](NC(=O)Nc1ccc(NC(=O)Nc2ccccc2C)cc1)C(=O)N[C@@H](CC(=O)O)C(=O)N[C@H](C(=O)N1CCC[C@H]1C(N)=O)C(C)CC` (stereo partly drawn) [(3S)-3-{[(2S,3S)-1-[(2S)-2-carbamoylpyrrolidin-1-yl]-3-methyl-1-oxopentan-2-yl]carbamoyl}-3-[(2S)-2-{[(4-{[(2-methylphenyl)carbamoyl]amino}phenyl)carbamoyl]amino}hexanamido]propanoic acid] ({X14-CO}-[Nle]D[Ile(3ξ)]P-NH2), `CCCC[C@H](NC(=O)Nc1cccc(NC(=O)Nc2ccccc2C)c1)C(=O)N[C@@H](CC(=O)O)C(=O)N[C@H](C(=O)N1CCC[C@H]1C(N)=O)C(C)CC` (stereo partly drawn) [(3S)-3-{[(2S,3S)-1-[(2S)-2-carbamoylpyrrolidin-1-yl]-3-methyl-1-oxopentan-2-yl]carbamoyl}-3-[(2S)-2-{[(3-{[(2-methylphenyl)carbamoyl]amino}phenyl)carbamoyl]amino}hexanamido]propanoic acid] ({X9-CO}-[Nle]D[Ile(3ξ)]P-NH2) is 1.76 log units lower in pIC50: 7.27 for the first, 5.51 for the second. The first is the more potent here.

`CCCC[C@H](NC(=O)Cc1ccc(NC(=O)Nc2ccccc2C)cc1)C(=O)N[C@@H](CC(=O)O)CC(=O)N[C@H](C(=O)N1CCC[C@H]1C(N)=O)C(C)CC` (stereo partly drawn) [(3R)-4-{[(2S,3R)-1-[(2S)-2-carbamoylpyrrolidin-1-yl]-3-methyl-1-oxopentan-2-yl]carbamoyl}-3-[(2S)-2-[1-(4-{[(2-methylphenyl)carbamoyl]amino}phenyl)acetamido]hexanamido]butanoic acid] ({NH(2-Me-phenyl)-CO}-[X1][Nle][β3hD][Ile(3ξ)]P-NH2) and `CCCC[C@H](NC(=O)Cc1ccc(NC(=O)Nc2ccccc2C)cc1)C(=O)N[C@@H](CCCC(=O)O)C(=O)N[C@H](C(=O)N1CCC[C@H]1C(N)=O)C(C)CC` (stereo partly drawn) [(5S)-5-{[(2S,3S)-1-[(2S)-2-carbamoylpyrrolidin-1-yl]-3-methyl-1-oxopentan-2-yl]carbamoyl}-5-[(2S)-2-[1-(4-{[(2-methylphenyl)carbamoyl]amino}phenyl)acetamido]hexanamido]pentanoic acid] ({NH(2-Me-phenyl)-CO}-[X1][Nle][Aad][Ile(3ξ)]P-NH2) are within 0.2 log units of each other in pIC50: 8.40 for the first, 8.47 for the second.

Going from `CCCC[C@H](NC(=O)Cc1ccc(NC(=O)Nc2ccccc2C)cc1)C(=O)N[C@@H](CC(=O)O)C(=O)N[C@H](C(=O)N1CCC[C@H]1C(N)=O)C(C)C` [(3S)-3-{[(2S)-1-[(2S)-2-carbamoylpyrrolidin-1-yl]-3-methyl-1-oxobutan-2-yl]carbamoyl}-3-[(2S)-2-[1-(4-{[(2-methylphenyl)carbamoyl]amino}phenyl)acetamido]hexanamido]propanoic acid] ({NH(2-Me-phenyl)-CO}-[X1][Nle]DVP-NH2) to `CCC(C)[C@H](NC(=O)[C@H](CC(=O)O)NC(=O)[C@H](CC(C)C)NC(=O)Cc1ccc(NC(=O)Nc2ccccc2C)cc1)C(=O)N1CCC[C@H]1C(N)=O` (stereo partly drawn) [(3S)-3-{[(2S,3S)-1-[(2S)-2-carbamoylpyrrolidin-1-yl]-3-methyl-1-oxopentan-2-yl]carbamoyl}-3-[(2S)-4-methyl-2-[1-(4-{[(2-methylphenyl)carbamoyl]amino}phenyl)acetamido]pentanamido]propanoic acid] ({NH(2-Me-phenyl)-CO}-[X1]LD[Ile(3ξ)]P-NH2), the pIC50 falls from 9.22 to 8.72 (0.50 log units). The first is the more potent here.

Going from `CCCCCCC(=O)NC[C@H](NC(=O)Cc1ccc(NC(=O)Nc2ccccc2C)cc1)C(=O)N[C@@H](CC(=O)O)C(=O)N[C@H](C(=O)N1CCC[C@H]1C(N)=O)C(C)CC` (stereo partly drawn) [(3S)-3-{[(2S,3S)-1-[(2S)-2-carbamoylpyrrolidin-1-yl]-3-methyl-1-oxopentan-2-yl]carbamoyl}-3-[(2S)-3-heptanamido-2-[1-(4-{[(2-methylphenyl)carbamoyl]amino}phenyl)acetamido]propanamido]propanoic acid] ({NH(2-Me-phenyl)-CO}-[X1][Dap](Heptanoyl)D[Ile(3ξ)]P-NH2) to `CCCC[C@H](NC(=O)CCCc1ccc(NC(=O)Nc2ccccc2C)cc1)C(=O)N[C@@H](CC(=O)O)C(=O)N[C@H](C(=O)N1CCC[C@H]1C(N)=O)C(C)CC` (stereo partly drawn) [(3S)-3-{[(2S,3S)-1-[(2S)-2-carbamoylpyrrolidin-1-yl]-3-methyl-1-oxopentan-2-yl]carbamoyl}-3-[(2S)-2-[4-(4-{[(2-methylphenyl)carbamoyl]amino}phenyl)butanamido]hexanamido]propanoic acid] ({NH(2-Me-phenyl)-CO}-[X3][Nle]D[Ile(3ξ)]P-NH2), the pIC50 rises from 6.51 to 7.00 (0.49 log units). The second is the more potent here.

Compared with `CCCC[C@H](NC(=O)c1ccc(NC(=O)Nc2ccccc2C)cc1)C(=O)N[C@@H](CC(=O)O)C(=O)N[C@H](C(=O)N1CCC[C@H]1C(N)=O)C(C)CC` (stereo partly drawn) [(3S)-3-{[(2S,3S)-1-[(2S)-2-carbamoylpyrrolidin-1-yl]-3-methyl-1-oxopentan-2-yl]carbamoyl}-3-[(2S)-2-[(4-{[(2-methylphenyl)carbamoyl]amino}phenyl)formamido]hexanamido]propanoic acid] ({NH(2-Me-phenyl)-CO-4Abz}-[Nle]D[Ile(3ξ)]P-NH2), `CCCC[C@H](NC(=O)C(C)c1ccc(NC(=O)Nc2ccccc2C)cc1)C(=O)N[C@@H](CC(=O)O)C(=O)N[C@H](C(=O)N1CCC[C@H]1C(N)=O)C(C)CC` (stereo partly drawn) [(3S)-3-{[(2S,3S)-1-[(2S)-2-carbamoylpyrrolidin-1-yl]-3-methyl-1-oxopentan-2-yl]carbamoyl}-3-[(2S)-2-[2-(4-{[(2-methylphenyl)carbamoyl]amino}phenyl)propanamido]hexanamido]propanoic acid] ({NH(2-Me-phenyl)-CO}-[X13][Nle]D[Ile(3ξ)]P-NH2) is 2.99 log units higher in pIC50: 5.52 for the first, 8.51 for the second. The second is the more potent here.

`CCCC[C@H](NC(=O)Cc1ccc(NC(=O)Nc2ccccc2Oc2ccccc2)cc1)C(=O)N[C@@H](CC(=O)O)C(=O)N[C@H](C(=O)N1CCC[C@H]1C(N)=O)C(C)CC` (stereo partly drawn) [(3S)-3-{[(2S,3S)-1-[(2S)-2-carbamoylpyrrolidin-1-yl]-3-methyl-1-oxopentan-2-yl]carbamoyl}-3-[(2S)-2-[1-(4-{[(2-phenoxyphenyl)carbamoyl]amino}phenyl)acetamido]hexanamido]propanoic acid] ({X12-CO}-[X1][Nle]D[Ile(3ξ)]P-NH2) and `CCCC[C@H](NC(=O)c1ccc(-c2ccc(NC(=O)Nc3ccccc3C)cc2)o1)C(=O)N[C@@H](CC(=O)O)C(=O)N[C@H](C(=O)N1CCC[C@H]1C(N)=O)C(C)CC` (stereo partly drawn) [(3S)-3-{[(2S,3S)-1-[(2S)-2-carbamoylpyrrolidin-1-yl]-3-methyl-1-oxopentan-2-yl]carbamoyl}-3-[(2S)-2-{[5-(4-{[(2-methylphenyl)carbamoyl]amino}phenyl)furan-2-yl]formamido}hexanamido]propanoic acid] ({NH(2-Me-phenyl)-CO}-[X5][Nle]D[Ile(3ξ)]P-NH2) are within 0.2 log units of each other in pIC50: 6.30 for the first, 6.47 for the second.

Same assay, conditions: pH 7.5; 22 °C

`CCCC[C@H](NC(=O)Cc1ccc(NC(=O)Nc2ccccc2C)cc1)C(=O)N[C@@H](CC(=O)O)C(=O)N[C@H](C(=O)N1CCC[C@H]1CC(N)=O)C(C)CC` (stereo partly drawn) [(3S)-3-{[(2S,3S)-1-[(2S)-2-(carbamoylmethyl)pyrrolidin-1-yl]-3-methyl-1-oxopentan-2-yl]carbamoyl}-3-[(2S)-2-[1-(4-{[(2-methylphenyl)carbamoyl]amino}phenyl)acetamido]hexanamido]propanoic acid] ({NH(2-Me-phenyl)-CO}-[X1][Nle]D[Ile(3ξ)][β3hP]-NH2) and `CCCC[C@H](NC(=O)Cc1ccc(NC(=O)Nc2ccccc2C)cc1)C(=O)N[C@@H](CC(=O)O)C(=O)N[C@H](C(=O)N1CCC[C@@H]1C(N)=O)C(C)CC` (stereo partly drawn) [(3S)-3-{[(2S,3S)-1-[(2R)-2-carbamoylpyrrolidin-1-yl]-3-methyl-1-oxopentan-2-yl]carbamoyl}-3-[(2S)-2-[1-(4-{[(2-methylphenyl)carbamoyl]amino}phenyl)acetamido]hexanamido]propanoic acid] are within 0.2 log units of each other in pIC50: 8.51 for the first, 8.54 for the second.

Compared with `CCCC[C@H](NC(=O)Cc1ccc(NC(=O)Nc2ccccc2C)cc1)C(=O)N[C@@H](CC(=O)O)C(=O)N[C@H](C(=O)N1CC(OCc2ccccc2)C[C@H]1C(N)=O)C(C)CC` (stereo partly drawn) [(3S)-3-{[(2S,3S)-1-[(2S)-4-(benzyloxy)-2-carbamoylpyrrolidin-1-yl]-3-methyl-1-oxopentan-2-yl]carbamoyl}-3-[(2S)-2-[1-(4-{[(2-methylphenyl)carbamoyl]amino}phenyl)acetamido]hexanamido]propanoic acid], `CCCC[C@H](NC(=O)Cc1ccc(NC(=O)Nc2ccccc2C)cc1)C(=O)N[C@@H](CC(=O)O)C(=O)N[C@H](C(=O)N1CCC(C(N)=O)CC1)C(C)CC` (stereo partly drawn) [(3S)-3-{[(2S,3S)-1-(4-carbamoylpiperidin-1-yl)-3-methyl-1-oxopentan-2-yl]carbamoyl}-3-[(2S)-2-[1-(4-{[(2-methylphenyl)carbamoyl]amino}phenyl)acetamido]hexanamido]propanoic acid] is 0.20 log units higher in pIC50: 8.28 for the first, 8.48 for the second. The second is the more potent here.

`CCCC[C@H](NC(=O)Cc1ccc(NC(=O)Nc2ccccc2C)cc1)C(=O)N[C@@H](CC(=O)O)C(=O)N[C@H](C(=O)NC1CCCC1C(N)=O)C(C)CC` (stereo partly drawn) [(3S)-3-{[(1S,2S)-1-[(2-carbamoylcyclopentyl)carbamoyl]-2-methylbutyl]carbamoyl}-3-[(2S)-2-[1-(4-{[(2-methylphenyl)carbamoyl]amino}phenyl)acetamido]hexanamido]propanoic acid] was tested, and the pIC50 was 8.47.
